Results reported in US12295992B2, “Use of ALDH1A and agonist, catalyst and inhibitor thereof” (SHANGHAI INSTITUTES FOR BIOLOGICAL SCIENCES, CHINESE …, priority 2017, dated 2025).

Key:
[1] = test system: mice overexpressing UBE3A; test: Three-chamber social experiment in mice overexpressing UBE3A; format: in vivo; details: oral ATRA 3 mg/kg
Description: Three-week-aged mice were anesthetized with intraperitoneal injection of pentobarbital (50 mg/kg) and fixed on a locator (Rivend, China). 1 μL of PBS-diluted AAV virus was injected at a rate of 0.2 μL/min on both sides of the PFC region in the mouse brain using a syringe pump (Stoelting). The position of the site injection (relative to the front fontanel): AP, +2 mm; ML, ±0.5 mm; DV, −1.3 mm. […] The needle was held in place for another 3 minutes to prevent virus reflux. The mice were placed on a 37° C. electric blanket until they recovered completely from the anesthesia. 1-2 days after surgery, mice were intraperitoneally injected with 0.5 mg/ml meloxicam (Sigma, 2 mg/kg) to help the mice to relieve pain. Four weeks after surgery, mice were tested for behavior. […] Behavioral testing was performed 4 weeks after administration.
A three-chamber social experiment was performed according to previously reported procedures (Sztainberg et al., 2015). Briefly, a transparent acrylic box for social experiment was divided into three chambers of uniform size with removable gates mounted on the partition board. An inverted iron mesh cup was placed in each of the left and right chambers. Two days before the experiment, C57BL/6 mice, which were from different family and whose age was matched with the test mice, were placed in two cups as strange mice for 1 hour each day for accommodation. Test mice were randomized into groups and accommodated to the test chamber for 1 hour before the test started. Each test mouse was placed in the center chamber for 10 minutes for self-exploration, and the chamber door was closed. In the first stage, a strange mouse was randomly placed in the left or right cup (avoiding positional bias), and the inanimate article was placed in the cup on the other side. Each test mouse was explored for 10 minutes in the open three-chambers, and the communication time between the test mice and the strange mice or the articles was manually recorded. In the second stage, the test mice were kept in the chamber of the strange mouse for 5 minutes, and then another strange mouse was placed in the cup in which the article was previously placed. The test mice were further explored for 10 minutes, and the communication time between the test mice and the familiar animals or the new animals was manually recorded.
To further verify whether UBE3A overactivation triggered the autism phenotype in mice due to injury in the RA production process, mice injected with UBE3A-bearing AAV virus in PFC were orally administered with oral solvents (olive oil) or ATRA (3 mg/kg), administered five consecutive days per week for a total of four weeks. Then the mice were subjected to behavioral experiments (FIG. 8a).

[2] = test system: wild-type C57BL/6 mice; test: Self-grooming experiment in wild-type mice; format: in vivo; details: wild-type mice, oral ATRA, same administration
Description: Four-week-aged mice were given a low dose (0.1 mg/g) or a high dose (0.3 mg/g) of DSF (Sigma, dissolved in olive oil) every two days for 6 weeks. The control group was only given the solvent olive oil (Aladdin). The body weight of the mice was weighed weekly. After 6 weeks of gastric administration, the test of mouse behavior was started. The brains of the control and DSF mice were dissected and taken. After freezing with liquid nitrogen, the brain tissue was homogenized, and ATRA was quantified by the HPLC-MS/MS method as described hereinafter. The mice used in the self-grooming experiment were placed in a cage box filled with a filler having a thickness of about 0.5-1 cm for 10 minutes in advance for accommodation. Then, within 10 minutes, the time of self-grooming in mice was recorded by a double-blind experimenter through a stopwatch.

[3] = test system: wild-type C57BL/6 mice; test: Rotating rod experiment in wild-type mice; format: in vivo; details: wild-type mice, oral ATRA, same administration
Description: (§1) Four-week-aged mice were given a low dose (0.1 mg/g) or a high dose (0.3 mg/g) of DSF (Sigma, dissolved in olive oil) every two days for 6 weeks. The control group was only given the solvent olive oil (Aladdin). The body weight of the mice was weighed weekly. After 6 weeks of gastric administration, the test of mouse behavior was started. The brains of the control and DSF mice were dissected and taken. After freezing with liquid nitrogen, the brain tissue was homogenized, and ATRA was quantified by the HPLC-MS/MS method as described hereinafter.
After mice were randomized into groups, the motor coordination ability of the mice was recorded using a Rotamex rotarod instrument (Columnbus Instruments). On the same day, the test mice were tested 3 times, each experiment was lasted 5 minutes, and the rotating rod was accelerated from 4 revolutions […]. There were at least 30 minutes between two experiments. The time before the test mice dropped off the rod was automatically recorded by an infrared detection system, and the results of the last test were finally compared.

[4] = test system: mice overexpressing UBE3A; test: Open field experiment in mice overexpressing UBE3A; format: in vivo; details: oral ATRA 3 mg/kg, vs solvent group
Description: (§2) Three-week-aged mice were anesthetized with intraperitoneal injection of pentobarbital (50 mg/kg) and fixed on a locator (Rivend, China). 1 μL of PBS-diluted AAV virus was injected at a rate of 0.2 μL/min on both sides of the PFC region in the mouse brain using a syringe pump (Stoelting). The position of the site injection (relative to the front fontanel): AP, +2 mm; ML, ±0.5 mm; DV, −1.3 mm. The amount of virus injected per injection site was: AAV-SynI-Flag-UBE3A and its mutant T508E, 3×10^9; and AAV-SynI-Flag-EGFP, 1.5×10^9. The needle was held in place for another 3 minutes to prevent virus reflux. The mice were placed on a 37° C. electric blanket until they recovered completely from the anesthesia. 1-2 days after surgery, mice were intraperitoneally injected with 0.5 mg/ml meloxicam (Sigma, 2 mg/kg) to help the mice to relieve pain. Four weeks after surgery, mice were tested for behavior. In the ATRA compensation experiment, one week after the injection of AAV-SynI-Flag-UBE3A virus, mice were orally administered with ATRA (Sigma, dissolved in olive oil, 3 mg/kg) or olive oil for five consecutive days. Behavioral testing was performed 4 weeks after administration.
Mice were randomized into groups and placed in an open field instrument (Med Associates) for 30 minutes. […]

[5] = test system: mice overexpressing UBE3A; test: Rotating rod experiment in mice overexpressing UBE3A; format: in vivo; details: oral ATRA 3 mg/kg
Description: as §2, with “In the ATRA compensation experiment, one week after the injection of AAV-SynI-Flag-UBE3A virus, mice were orally administered with ATRA (Sigma, dissolved in olive oil, 3 mg/kg) or olive oil for five consecutive days. Behavioral testing was performed 4 weeks after administration.” left out
After mice were randomized into groups, the motor coordination ability of the mice was recorded using a Rotamex rotarod instrument (Columnbus Instruments). […] The time before the test mice dropped off the rod was automatically recorded by an infrared detection system, and the results of the last test were finally compared.

[6] = test system: wild-type C57BL/6 mice; test: Three-chamber social experiment in wild-type mice; format: in vivo; details: wild-type mice, oral ATRA, same administration
Description: Four-week-aged mice were given a low dose (0.1 mg/g) or a high dose (0.3 mg/g) of DSF (Sigma, dissolved in olive oil) every two days for 6 weeks. The control group was only given the solvent olive oil (Aladdin). The body weight of the mice was weighed weekly. After 6 weeks of gastric administration, the test of mouse behavior was started. The brains of the control and DSF mice were dissected and taken. After freezing with liquid nitrogen, the brain tissue was homogenized, and ATRA was quantified by the HPLC-MS/MS method as described hereinafter. A three-chamber social experiment was performed according to previously reported procedures (Sztainberg et al., 2015). Briefly, a transparent acrylic box for social experiment was divided into three chambers of uniform size with removable gates mounted on the partition board. An inverted iron mesh cup was placed in each of the left and right chambers. Two days before the experiment, C57BL/6 mice, which were from different family and whose age was matched with the test mice, were placed in two cups as strange mice for 1 hour each day for accommodation. Test mice were randomized into groups and accommodated to the test chamber for 1 hour before the test started. Each test mouse was placed in the center chamber for 10 minutes for self-exploration, and the chamber door was closed. In the first stage, a strange mouse was randomly placed in the left or right cup (avoiding positional bias), and the inanimate article was placed in the cup on the other side. […] In the second stage, the test mice were kept in the chamber of the strange mouse for 5 minutes, and then another strange mouse was placed in the cup in which the article was previously placed.

[7] = test system: wild-type C57BL/6 mice; test: Open field experiment in wild-type mice; format: in vivo; details: wild-type mice, oral ATRA, same administration
Description: as §1
Mice were randomized into groups and placed in an open field instrument (Med Associates) for 30 minutes. The Ethovision automatic recording software (Noldus) was used to record the time spent by the mouse in the central region (⅓ to ⅔ of length on each side of the region) and to calculate the ratio of the distance walked in the central region to the total distance.

[8] = test system: mice overexpressing UBE3A; test: Self-grooming experiment in mice overexpressing UBE3A (AAV in PFC); format: in vivo; details: oral ATRA 3 mg/kg, four weeks, compared to oral solvent group
Description: To further verify whether UBE3A overactivation triggered the autism phenotype in mice due to injury in the RA production process, mice injected with UBE3A-bearing AAV virus in PFC were orally administered with oral solvents (olive oil) or ATRA (3 mg/kg), administered five consecutive days per week for a total of four weeks.

[9] = molecular target: T1, GST-UBE3A and ALDH1A2 proteins (Homo sapiens, UniProt O94788); test: GST pull-down competition of UBE3A-ALDH1A2 binding; details: peptide added in GST pull-down experiment
T1 construct: His6 (C); made in house; host or cells: E. coli BL21
T1 sequence (O94788 1-518): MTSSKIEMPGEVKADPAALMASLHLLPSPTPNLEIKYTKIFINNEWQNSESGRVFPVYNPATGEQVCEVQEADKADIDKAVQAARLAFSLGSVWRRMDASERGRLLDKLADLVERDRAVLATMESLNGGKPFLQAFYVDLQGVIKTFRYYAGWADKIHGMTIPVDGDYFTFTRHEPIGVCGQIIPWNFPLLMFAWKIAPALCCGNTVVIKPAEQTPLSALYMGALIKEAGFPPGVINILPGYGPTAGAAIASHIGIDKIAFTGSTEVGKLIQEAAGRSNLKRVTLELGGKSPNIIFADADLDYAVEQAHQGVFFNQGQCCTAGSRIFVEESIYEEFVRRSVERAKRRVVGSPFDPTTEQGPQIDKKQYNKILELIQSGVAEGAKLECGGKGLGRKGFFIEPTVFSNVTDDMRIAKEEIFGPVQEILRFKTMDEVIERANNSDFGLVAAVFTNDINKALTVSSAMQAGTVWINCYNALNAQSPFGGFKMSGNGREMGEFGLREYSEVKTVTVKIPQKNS
Description: GST, GST-UBE3A and the truncated GST-UBE3A proteins were induced to express in BL21 competent bacterium (NEB) and purified using glutathione agarose (GE Healthcare). ALDH1A1-His6, ALDH1A2-His6 and ALDH1A3-His6 proteins were purified using Ni-NTA agarose (Qiagen). The purified ALDH1A2-His6 and GST-UBE3A proteins were incubated in a pull-down buffer (50 mM Tris-Cl, pH 8.0, 200 mM NaCl, 1 mM EDTA, 1% NP-40, 1 mM DTT, 10 mM MgCl2) at 4° C. for 2 hours. The beads were washed 4 times with the pull-down buffer and analyzed by immunoblotting. The pull-down analysis of other proteins followed the same steps.
Since there was no known substrate for UBE3A to explain the association between the onset of ASD and UBE3A overactivation from a mechanical perspective (Glessner et al., 2009), human UBE3A protein was firstly used as a bait to screen for unknown substrate proteins by yeast two-hybrid method. […] Retinoic acid or RA, as an active metabolite of vitamin A (retinol), is required for the development and growth of higher animals including human. The synthesis of RA is accomplished in two steps, including retinol dehydrogenase (RDH10), which catalyzes retinol into retinal, and retinal dehydrogenase (ALDH1A1, ALDH1A 2, and ALDH1A 3 families which catalyze retinal into retinoic acid). Endogenous or exogenously expressed UBE3A and ALDH1A2 proteins were confirmed to form complexes in HEK-293FT cells by immunoprecipitation experiments (FIG. 2b-c). In immunofluorescence experiments, Flag-tagged and RFP-tagged UBE3A and ALDH1A2 proteins were co-localized in the cytoplasm of […] cell SH-SY5Y (FIG. 2d). The GST pull-down experiment further confirmed that the recombinant proteins UBE3A and ALDH1A2 could bind directly in vitro (FIG. 2e) and bound through the N-terminal (amino acid position of 1-280) of UBE3A (FIG. 2f). Since the ALDH1A2 protein had high sequence homology to other family members of ALDH1A1 and ALDH1A 3, it was further verified that UBE3A could bind directly to ALDH1A1 and ALDH1A3, respectively, in vitro and in vivo (FIG. 2g-j). […]

For `CC1=C(/C=C/C(C)=C/C=C/C(C)=C/C(=O)O)C(C)(C)CCC1` [ATRA, all-trans retinoic acid], the “cognitive deficits in social novelty” value [1] was “alleviated”, the “time interacting with social animals vs non-social articles” value [1] was “nearly twice as much time” and the “time spent with strange mice vs familiar mice” value [1] was “twice”. The social barriers ([1]; compared with solvent group) was “completely reversed”, the “self-grooming experiment, solvent vs ATRA” value [2] was “did not cause any differences” and the “rotating rod experiment, solvent vs ATRA” value [3] was “did not cause any differences”. The “distance walked in open field” value [4] was “walked more distance”, the “time in the middle of the open field” value [4] was “less time” and the “sport ability (rotating rod)” value [5] was “did not affect the sport ability”. For the same compound, the “three-chamber social interaction experiment, solvent vs ATRA” value [6] was “did not cause any differences”, the “open field experiment, solvent vs ATRA” value [7] was “did not cause any differences” and the “time spent on self-grooming behavior” value [8] was “significantly reduced”.

“peptide-1: SEQ ID No: 9 ASRMKRAAAKHLIERYYHQLTEGCG, targets UBE3A-ALDH1A2 binding region (peptide-1)” was tested, and the “blocking of binding between GST-UBE3A and ALDH1A2 proteins” value (“blocking” for short) [9] was “could block the bonding between GST-UBE3A and ALDH1A2 proteins in different extend”.

In the case of “peptide-2: SEQ ID No: 10 NNAAAIKALELYKINAKLCDPH, targets UBE3A-ALDH1A2 binding region (peptide-2)”, the “blocking” value [9] was “could block the bonding between GST-UBE3A and ALDH1A2 proteins in different extend”.

In the case of “peptide-3: SEQ ID No: 11 AEALVQSFRKVKQHTKEELKSLQAKDEDKD, targets UBE3A-ALDH1A2 binding region (peptide-3)”, the “blocking” value [9] was “could block the bonding between GST-UBE3A and ALDH1A2 proteins in different extend”.
